According to ChEMBL document CHEMBL2095176, “GSK Tuberculosis Screening Data”:
≈ marks a conversion by molar mass, not a printed value.

How the values were obtained:
[1] = physchem; conditions: buffer, pH 7.4
Description: GSK_TB: GSK in-house hydrophobicity assay at pH7.4 (logD)

[2] = physchem; conditions: octanol/water
Description: GSK_TB: GSK in-house hydrophobicity assay (logP)

[3] = physchem; conditions: phosphate buffered saline, pH 7.4
[4] = system: Mycobacterium tuberculosis H37Rv; experiment: microbe, parasite or virus in culture
Description: GSK_TB: Intracellular minimum inhibitory concentration (MIC) H37Rv assay

Q: What does the source list for Br.CC1(C)N=C(N)N=C(N)N1OCCc1ccc2ccccc2c1?
A: logD [1]: 2.92; logP [2]: 4.23; solubility kinetic [3]: 201 µM; MIC90 [4]: 2.32 µM

Q: With CSc1ccc(-c2nnc(NC(=O)c3ccc(Cl)s3)o2)cc1 as the molecule, how does the logD [1] read?
A: 3.76

Q: And the logP [2]?
A: 6.07

Q: What about the solubility kinetic [3] of the same molecule?
A: 67 µM (≈ 23.6 µg/mL)

Q: And the MIC90 [4]?
A: 6.61 µM (≈ 2.32 µg/mL)

Q: With Cc1ccc2nc(C(F)(F)F)c(C(=O)NCc3ccco3)n2c1 as the molecule, how does the logD [1] read?
A: 4.32

Q: What about the logP [2] of the same molecule?
A: 4.48

Q: And the solubility kinetic [3]?
A: 159 µM (≈ 51.4 µg/mL)

Q: And the MIC90 [4]?
A: 3.89 µM (≈ 1.26 µg/mL)

Q: With Cc1ccc2[nH]c(C3CCCNC3)c(-c3ccncc3)c2c1 (centres undefined) as the molecule, how does the logD [1] read?
A: 2.18

Q: And the logP [2]?
A: 3.72

Q: What about the solubility kinetic [3] of the same molecule?
A: 267 µM (≈ 77.8 µg/mL)

Q: And the MIC90 [4]?
A: 7.67 µM (≈ 2.24 µg/mL)

Q: With COc1ccc2cc(C(=O)Nc3ccc(C4CCN(C)CC4)cc3)sc2c1 as the molecule, how does the logD [1] read?
A: 3.11

Q: What about the logP [2] of the same molecule?
A: 5.93

Q: What about the solubility kinetic [3] of the same molecule?
A: 62 µM (≈ 23.6 µg/mL)

Q: And the MIC90 [4]?
A: 9.55 µM (≈ 3.63 µg/mL)

Q: With O=C(NC12CC3CC(CC(C3)C1)C2)c1cc2cc(Cl)ccc2[nH]1 as the molecule, how does the MIC90 [4] read?
A: 1 µM (≈ 0.329 µg/mL)

Q: What does the source list for O=C(COc1ccccc1)N1CCN(c2cnc3ccccc3n2)CC1?
A: logD [1]: 4.69; logP [2]: 4.72; solubility kinetic [3]: 173 µM (≈ 60.3 µg/mL); MIC90 [4]: 3.09 µM (≈ 1.08 µg/mL)

Q: Which logD [1] does the source give for Cc1ccc(C(=O)Nc2nc(-c3ccccn3)cs2)s1 here?
A: 4.6

Q: What about the logP [2] of the same molecule?
A: 4.61

Q: And the solubility kinetic [3]?
A: 15 µM (≈ 4.52 µg/mL)

Q: What about the MIC90 [4] of the same molecule?
A: 8.41 µM (≈ 2.54 µg/mL)

Q: For Cc1cc(CN2CCC3(CC2)OCCc2sccc23)oc1C, which solubility kinetic [3] is on record?
A: 289 µM (≈ 91.7 µg/mL)

Q: And the MIC90 [4]?
A: 3.7 µM (≈ 1.17 µg/mL)

Q: Which logD [1] does the source give for COc1ccc(-c2cc(=O)c3cc(OCC(=O)OC(C)C)ccc3o2)cc1 here?
A: 5.91

Q: What about the logP [2] of the same molecule?
A: 6.29

Q: What about the MIC90 [4] of the same molecule?
A: 2.95 µM (≈ 1.09 µg/mL)

Q: What does the source list for O=C(c1cnn(C(=O)c2ccco2)c1)c1cc(F)ccc1O?
A: solubility kinetic [3]: 1 µM (≈ 0.3 µg/mL); MIC90 [4]: 9.55 µM (≈ 2.87 µg/mL)

Q: Which MIC90 [4] does the source give for COc1ccc2nc(C)cc(OCC(=O)Nc3ccccc3OC)c2c1 here?
A: 0.4 µM (≈ 0.141 µg/mL)

Q: Which MIC90 [4] does the source give for COc1ccc2nc(C)cc(OCC(=O)Nc3cc(C)cc(C)c3)c2c1 here?
A: 0.3 µM (≈ 0.105 µg/mL)

Q: With O=C(CCSc1ccc(Cl)cc1)Nc1nc(-c2ccccn2)cs1 as the molecule, how does the MIC90 [4] read?
A: 8.41 µM (≈ 3.16 µg/mL)

Q: Which MIC90 [4] does the source give for c1cc2c(s1)CCOC21CCN(Cc2ccc3c(c2)OCCO3)CC1 here?
A: 1 µM (≈ 0.357 µg/mL)

Q: For Cc1cc(/C=C/c2cccc(C(=O)O)c2)cc(Cl)c1OC[C@@H]1CCCN1C, which solubility kinetic [3] is on record?
A: 486 µM (≈ 188 µg/mL)

Q: And the MIC90 [4]?
A: 0.457 µM (≈ 0.176 µg/mL)

Q: Which MIC90 [4] does the source give for CNc1nc(SC)nc2ccccc12 here?
A: 0.2 µM (≈ 0.0411 µg/mL)

Q: For CCc1ccc([C@@H]2C[C@H](C(F)(F)F)n3ncc(C(=O)NCc4ccc(OC)cc4)c3N2)cc1, which MIC90 [4] is on record?
A: 4.9 µM (≈ 2.25 µg/mL)

Q: Which logD [1] does the source give for CCCOC(=O)COc1ccc2c(=O)c(-c3ccccc3OC)coc2c1 here?
A: 6

Q: What about the logP [2] of the same molecule?
A: 6.24

Q: What about the MIC90 [4] of the same molecule?
A: 7.94 µM (≈ 2.93 µg/mL)

Q: For Cc1ccc2nc(C)c(C(=O)NCc3cccs3)n2c1, which MIC90 [4] is on record?
A: 0.2 µM (≈ 0.0571 µg/mL)

Q: For CSc1ccc(C(=O)Nc2nc(-c3ccccn3)cs2)cc1, which logD [1] is on record?
A: 5.07

Q: And the logP [2]?
A: 5.06

Q: And the MIC90 [4]?
A: 8.71 µM (≈ 2.85 µg/mL)

Q: Which MIC90 [4] does the source give for CSc1ccccc1C(=O)Nc1nc(-c2ccccn2)cs1 here?
A: 1.74 µM (≈ 0.569 µg/mL)

Q: Which solubility kinetic [3] does the source give for Cc1csc2nc(-c3ccccn3)nc(Nc3ccncn3)c12.O=C(O)C(F)(F)F here?
A: 231 µM

Q: What about the MIC90 [4] of the same molecule?
A: 1.7 µM

Q: For Cc1cccc(-c2nc(Nc3ccncn3)c3c(C)csc3n2)n1, which MIC90 [4] is on record?
A: 0.3 µM (≈ 0.1 µg/mL)

Q: What does the source list for Nc1ccccc1Nc1ccc2c(c1)OCO2?
A: solubility kinetic [3]: 139 µM (≈ 31.7 µg/mL); MIC90 [4]: 1.82 µM (≈ 0.415 µg/mL)

Q: Which MIC90 [4] does the source give for c1ncn(-c2ccc(COc3ccc(-n4cncn4)cc3)cc2)n1 here?
A: 4.73 µM (≈ 1.51 µg/mL)

Q: For O=C(Nc1nnc(-c2ccc(Cl)s2)o1)c1ccc(Cl)s1, which MIC90 [4] is on record?
A: 7.76 µM (≈ 2.69 µg/mL)

Q: With COc1ccc(CCNc2cc(-c3ccccc3)nc3ncnn23)cc1 as the molecule, how does the MIC90 [4] read?
A: 0.6 µM (≈ 0.207 µg/mL)

Q: Which MIC90 [4] does the source give for Cc1cccc(-c2nc(Nc3ccncn3)c3sccc3n2)n1 here?
A: 0.5 µM (≈ 0.16 µg/mL)

Q: For COc1cccc(-c2nc3c(N4CCCC4)cccc3n2CC2CCCN2)n1.O=C(O)C(F)(F)F (centres undefined), which solubility kinetic [3] is on record?
A: 78 µM

Q: And the MIC90 [4]?
A: 9.77 µM

Q: Which solubility kinetic [3] does the source give for CCc1nnc(NC(=O)c2cccc(C(=O)Nc3nnc(CC)s3)n2)s1 here?
A: 26 µM (≈ 10.1 µg/mL)

Q: What about the MIC90 [4] of the same molecule?
A: 8 µM (≈ 3.12 µg/mL)

Q: Which MIC90 [4] does the source give for O=C(c1[nH]nc2c1CCCC2)N1CCN(Cc2ccc3c(c2)OCO3)CC1 here?
A: 4.5 µM (≈ 1.66 µg/mL)

Q: Which results are given for O=C(C=Cc1ccccc1)N1CCN(Cc2ccc3c(c2)OCO3)CC1?
A: logD [1]: 5.16; logP [2]: 5.44; MIC90 [4]: 3.7 µM (≈ 1.3 µg/mL)

Q: Which solubility kinetic [3] does the source give for c1ccc(-c2nc(N3CCCCCC3)nc(-n3ccnc3)n2)cc1 here?
A: 1 µM (≈ 0.32 µg/mL)

Q: What about the MIC90 [4] of the same molecule?
A: 7.41 µM (≈ 2.38 µg/mL)

Q: Which solubility kinetic [3] does the source give for Cc1ccccc1CN1CCC(O)(c2ccc(Cl)c(C(F)(F)F)c2)CC1 here?
A: 77 µM (≈ 29.6 µg/mL)

Q: What about the MIC90 [4] of the same molecule?
A: 4.2 µM (≈ 1.61 µg/mL)

Q: For CCc1ccc(CN2CCC3(CC2)OCCc2sccc23)s1, which MIC90 [4] is on record?
A: 1 µM (≈ 0.334 µg/mL)
